Reference: the supplement of paper PMC10307832

Key:
Assay in all cases: relative viability (nuclei count vs DMSO), 5 days (fraction); higher = more cells survive
[1] = test system: 201T
In short: (§1)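 One day after seeding in 1536-well plates, lung cancer cell lines were dosed by pin tool. Dosing was either single-drug or a fixed anchor-drug dose plus five library-drug doses (not always all listed) in √10 steps. After 5 days, nuclei were stained in one fix-and-stain step and counted on 4× images, and relative viability is the nuclei count of treated wells over that of vehicle wells, given as the median of duplicate plates.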

[2] = test system: BEN
In short: as §1

[3] = test system: EPLC-272H
In short: as §1

[4] = test system: HCC-15
In short: as §1

[5] = test system: HCC-78
In short: as §1

[6] = test system: LCLC-97TM1
In short: as §1

[7] = test system: LU99A
In short: as §1

[8] = test system: NCI-H1355
In short: as §1

[9] = test system: NCI-H1395
In short: as §1

[10] = test system: NCI-H2009
In short: as §1

[11] = test system: NCI-H2085
In short: as §1

[12] = test system: NCI-H2126
In short: as §1

[13] = test system: NCI-H2228
In short: as §1

[14] = test system: NCI-H2342
In short: as §1

[15] = test system: NCI-H23
In short: as §1

[16] = test system: NCI-H2405
In short: as §1

[17] = test system: NCI-H322M
In short: as §1

[18] = test system: NCI-H460
In short: as §1

[19] = test system: NCI-H647
In short: as §1

[20] = test system: NCI-H650
In short: as §1

[21] = test system: NCI-H661
In short: as §1

[22] = test system: NCI-H838
In short: as §1

[23] = test system: PC-14
In short: as §1

CCNC(=O)c1noc(-c2cc(C(C)C)c(O)cc2O)c1-c1ccc(CN2CCOCC2)cc1 [Luminespib] + Cc1nc(Nc2ncc(C(=O)Nc3c(C)cccc3Cl)s2)cc(N2CCN(CCO)CC2)n1 [Dasatinib] (partner 0.075 µM) gave a relative viability ([1]; first compound 0.002 µM) of 0.524, a relative viability ([1]; first compound 0.006325 µM) of 0.614 and a relative viability ([1]; first compound 0.02 µM) of 0.506. The relative viability ([1]; first compound 0.06325 µM) was 0.569, the relative viability ([1]; first compound 0.2 µM) was 0.237 and the relative viability ([2]; first compound 0.002 µM) was 0.323. The relative viability ([2]; first compound 0.006325 µM) was 0.303, the relative viability ([2]; first compound 0.02 µM) was 0.263 and the relative viability ([2]; first compound 0.06325 µM) was 0.334. For the same compound, the relative viability ([2]; first compound 0.2 µM) was 0.192, the relative viability ([3]; first compound 0.002 µM) was 0.365 and the relative viability ([3]; first compound 0.006325 µM) was 0.349. It also gave a relative viability ([3]; first compound 0.06325 µM) of 0.35, a relative viability ([3]; first compound 0.2 µM) of 0.0778 and a relative viability ([4]; first compound 0.002 µM) of 0.708. For the same compound, the relative viability ([4]; first compound 0.006325 µM) was 0.603, the relative viability ([4]; first compound 0.02 µM) was 0.61 and the relative viability ([4]; first compound 0.06325 µM) was 0.084. The relative viability ([4]; first compound 0.2 µM) was 0.0846, the relative viability ([5]; first compound 0.002 µM) was 0.373 and the relative viability ([5]; first compound 0.006325 µM) was 0.251. It also gave a relative viability ([5]; first compound 0.06325 µM) of 0.455, a relative viability ([5]; first compound 0.2 µM) of 0.204 and a relative viability ([6]; first compound 0.002 µM) of 0.884. For the same compound, the relative viability ([6]; first compound 0.006325 µM) was 0.721, the relative viability ([6]; first compound 0.02 µM) was 0.986 and the relative viability ([6]; first compound 0.06325 µM) was 0.726. For the same compound, the relative viability ([6]; first compound 0.2 µM) was 0.106, the relative viability ([7]; first compound 0.002 µM) was 0.658 and the relative viability ([7]; first compound 0.006325 µM) was 0.406. It also gave a relative viability ([7]; first compound 0.02 µM) of 0.377, a relative viability ([7]; first compound 0.06325 µM) of 0.0593 and a relative viability ([7]; first compound 0.2 µM) of 0.0775. For the same compound, the relative viability ([8]; first compound 0.002 µM) was 0.678, the relative viability ([8]; first compound 0.006325 µM) was 0.656 and the relative viability ([8]; first compound 0.02 µM) was 0.473. It also gave a relative viability ([8]; first compound 0.06325 µM) of 0.414, a relative viability ([8]; first compound 0.2 µM) of 0.153 and a relative viability ([9]; first compound 0.002 µM) of 0.418. For the same compound, the relative viability ([9]; first compound 0.006325 µM) was 0.386, the relative viability ([9]; first compound 0.02 µM) was 0.366 and the relative viability ([9]; first compound 0.06325 µM) was 0.33. The relative viability ([9]; first compound 0.2 µM) was 0.309, the relative viability ([10]; first compound 0.002 µM) was 0.342 and the relative viability ([10]; first compound 0.006325 µM) was 0.251. For the same compound, the relative viability ([10]; first compound 0.02 µM) was 0.222, the relative viability ([10]; first compound 0.06325 µM) was 0.0645 and the relative viability ([10]; first compound 0.2 µM) was 0.0808. The relative viability ([11]; first compound 0.002 µM) was 0.219, the relative viability ([11]; first compound 0.006325 µM) was 0.254 and the relative viability ([11]; first compound 0.02 µM) was 0.207. It also gave a relative viability ([11]; first compound 0.06325 µM) of 0.277, a relative viability ([11]; first compound 0.2 µM) of 0.266 and a relative viability ([12]; first compound 0.002 µM) of 0.631. It also gave a relative viability ([12]; first compound 0.006325 µM) of 0.606, a relative viability ([12]; first compound 0.02 µM) of 0.399 and a relative viability ([12]; first compound 0.06325 µM) of 0.206. It also gave a relative viability ([12]; first compound 0.2 µM) of 0.221, a relative viability ([13]; first compound 0.002 µM) of 0.423 and a relative viability ([13]; first compound 0.006325 µM) of 0.387. For the same compound, the relative viability ([13]; first compound 0.02 µM) was 0.103, the relative viability ([13]; first compound 0.06325 µM) was 0.096 and the relative viability ([13]; first compound 0.2 µM) was 0.101. It also gave a relative viability ([14]; first compound 0.002 µM) of 0.351, a relative viability ([14]; first compound 0.006325 µM) of 0.33 and a relative viability ([14]; first compound 0.02 µM) of 0.287. It also gave a relative viability ([14]; first compound 0.06325 µM) of 0.259, a relative viability ([14]; first compound 0.2 µM) of 0.311 and a relative viability ([15]; first compound 0.002 µM) of 0.839. It also gave a relative viability ([15]; first compound 0.006325 µM) of 0.765, a relative viability ([15]; first compound 0.02 µM) of 0.517 and a relative viability ([15]; first compound 0.06325 µM) of 0.118. The relative viability ([15]; first compound 0.2 µM) was 0.13, the relative viability ([16]; first compound 0.002 µM) was 0.226 and the relative viability ([16]; first compound 0.006325 µM) was 0.182. The relative viability ([16]; first compound 0.02 µM) was 0.178, the relative viability ([16]; first compound 0.06325 µM) was 0.164 and the relative viability ([16]; first compound 0.2 µM) was 0.138. It also gave a relative viability ([17]; first compound 0.002 µM) of 0.234, a relative viability ([17]; first compound 0.006325 µM) of 0.262 and a relative viability ([17]; first compound 0.02 µM) of 0.215. The relative viability ([17]; first compound 0.06325 µM) was 0.268, the relative viability ([17]; first compound 0.2 µM) was 0.276 and the relative viability ([18]; first compound 0.002 µM) was 0.462. For the same compound, the relative viability ([18]; first compound 0.006325 µM) was 0.481, the relative viability ([18]; first compound 0.02 µM) was 0.251 and the relative viability ([18]; first compound 0.06325 µM) was 0.0185. It also gave a relative viability ([18]; first compound 0.2 µM) of 0.0168, a relative viability ([19]; first compound 0.002 µM) of 0.199 and a relative viability ([19]; first compound 0.006325 µM) of 0.13. The relative viability ([19]; first compound 0.02 µM) was 0.13, the relative viability ([19]; first compound 0.06325 µM) was 0.0549 and the relative viability ([19]; first compound 0.2 µM) was 0.0598. For the same compound, the relative viability ([20]; first compound 0.002 µM) was 0.468, the relative viability ([20]; first compound 0.006325 µM) was 0.417 and the relative viability ([20]; first compound 0.02 µM) was 0.359. For the same compound, the relative viability ([20]; first compound 0.06325 µM) was 0.112, the relative viability ([20]; first compound 0.2 µM) was 0.115 and the relative viability ([21]; first compound 0.002 µM) was 0.891. For the same compound, the relative viability ([21]; first compound 0.006325 µM) was 0.954, the relative viability ([21]; first compound 0.02 µM) was 0.662 and the relative viability ([21]; first compound 0.06325 µM) was 0.286. For the same compound, the relative viability ([21]; first compound 0.2 µM) was 0.233, the relative viability ([22]; first compound 0.002 µM) was 0.301 and the relative viability ([22]; first compound 0.006325 µM) was 0.281. The relative viability ([22]; first compound 0.02 µM) was 0.233, the relative viability ([22]; first compound 0.06325 µM) was 0.189 and the relative viability ([22]; first compound 0.2 µM) was 0.203. It also gave a relative viability ([23]; first compound 0.002 µM) of 0.253, a relative viability ([23]; first compound 0.006325 µM) of 0.272 and a relative viability ([23]; first compound 0.02 µM) of 0.0443. It also gave a relative viability ([23]; first compound 0.06325 µM) of 0.0382 and a relative viability ([23]; first compound 0.2 µM) of 0.0374.
